Data published in paper PMC11543753, “The Ortholog Receptor Or67d in Drosophila Bipectinata is able to Detect Two Different Pheromones” (Journal of Chemical Ecology, 2024).

How the values were obtained:
[1] = tested on: T1, DbipOr67d (Drosophila bipectinata); experiment: single sensillum recording, spike rate of at1 neurons; format: cell-based; conditions: agonist; odor 10^-3 (v/v) in dichloromethane, 0.5 s puff; D. melanogaster at1 neurons expressing DbipOr67d; also tested in wild-type D. bipectinata at1
T1 construct: with Odorant receptor coreceptor (Drosophila melanogaster)

D. melanogaster Or67d = target: T2, D. melanogaster Or67d (Drosophila melanogaster, UniProt Q9VT92); experiment: as above; format: cell-based; conditions: agonist; odor 10^-3 (v/v) in dichloromethane, 0.5 s puff; native at1 neurons of wild-type CS flies
T2 construct: native receptor in at1 trichoid sensillum neurons of wild-type flies; with Odorant receptor coreceptor
T2 sequence (Q9VT92 1-391): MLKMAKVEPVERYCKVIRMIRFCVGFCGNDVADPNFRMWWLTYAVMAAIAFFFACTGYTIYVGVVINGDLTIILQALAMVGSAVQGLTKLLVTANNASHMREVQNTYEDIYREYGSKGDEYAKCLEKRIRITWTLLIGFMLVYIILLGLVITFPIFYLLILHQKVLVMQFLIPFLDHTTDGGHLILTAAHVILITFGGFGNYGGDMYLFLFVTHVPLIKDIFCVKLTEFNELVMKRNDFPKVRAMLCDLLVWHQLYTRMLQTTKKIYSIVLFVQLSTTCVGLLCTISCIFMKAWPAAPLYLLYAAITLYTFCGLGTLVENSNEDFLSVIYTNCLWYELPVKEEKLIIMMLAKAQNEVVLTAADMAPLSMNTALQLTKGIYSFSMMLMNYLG
T2 sequence (Q9VNB5 1-486 partner): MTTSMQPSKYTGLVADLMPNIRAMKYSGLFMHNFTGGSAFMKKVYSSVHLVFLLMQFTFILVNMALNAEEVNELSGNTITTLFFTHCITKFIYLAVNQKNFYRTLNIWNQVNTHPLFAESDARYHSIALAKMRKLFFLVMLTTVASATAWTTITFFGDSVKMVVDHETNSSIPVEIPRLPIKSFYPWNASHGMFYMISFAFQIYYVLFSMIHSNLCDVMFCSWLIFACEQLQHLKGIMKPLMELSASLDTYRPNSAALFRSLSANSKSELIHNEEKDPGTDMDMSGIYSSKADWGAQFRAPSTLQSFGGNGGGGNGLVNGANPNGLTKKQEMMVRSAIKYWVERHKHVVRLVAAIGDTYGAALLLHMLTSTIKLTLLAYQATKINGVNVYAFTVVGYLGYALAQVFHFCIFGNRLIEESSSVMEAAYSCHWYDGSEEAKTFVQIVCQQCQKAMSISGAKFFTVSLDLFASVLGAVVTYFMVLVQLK

Compound	single sensillum recording, spike rate of at1 neurons [1]	single sensillum recording, spike rate of at1 neurons (D. melanogaster Or67d)
CCCCCCCC/C=C\CCCCCCCCCCOC(C)=O [Z11-20:Ac, (Z)-11-eicosen-1-yl acetate]	Drosophila melanogaster OSNs ectopically expressing D.bipOr67d respond to cVA and Z11-20:Ac.	–
CCCCCC/C=C\CCCCCCCCCCOC(C)=O [cVA, (Z)-11-octadecen-1-yl acetate]	Drosophila melanogaster OSNs ectopically expressing D.bipOr67d respond to cVA and Z11-20:Ac.	D. melanogaster CS flies exhibited significant responses only to cVA (Fig. 1c)
